# Data from publication PMC9016807, “Metabolic, Pharmacokinetic, and Activity Profile of the Liver Stage Antimalarial (RC-12)” (ACS Omega, 2022).
# Assay: Metabolism in rhesus monkey liver microsomes
# Type: in vitro ADME
# Conditions: rhesus monkey, liver microsomes; 1 μM substrate, 0.4 mg/mL microsomal protein, NADPH, 37 °C, 60 min; average of three replicates; read-out: CLint
# Procedure: Following the protocols described by Charman et al.,[28]1 was incubated at 37 °C with human, rat, and rhesus monkey liver microsomes. For the determination of intrinsic clearance, the substrate concentration was 1 μM and the protein concentration was 0.4 mg/mL; for qualitative metabolite identification studies, the substrate and protein concentrations were 10 μM and 1 mg/mL, respectively. The reaction was initiated by the addition of an NADPH-regenerating buffer system, and the samples were incubated for up to 60 (for Clint determination) or 180 min (for additional metabolite identification). Samples without the test compound and without NADPH were also incubated and used as controls. The reaction was quenched by protein precipitation with the addition of an equal volume of ice-cold acetonitrile solution (containing diazepam as an internal standard), followed by vortexing and centrifugation for 3 min at 10000 rpm. The supernatant was removed and analyzed by LC/MS. LC/MS analysis was conducted using a Waters Micromass Xevo G2 QTOF MS coupled to a Waters Acquity UPLC. For metabolite identification, a Supelco Ascentis Express Amide column (50 × 2.1 mm, 2.7 μm) was used with an acetonitrile–water gradient (containing 0.05% formic acid), a flow rate of 0.4 mL/min, a gradient cycle time of 6 min, and an injection volume of 5 μL. MS analysis was conducted using positive mode electrospray ionization under MSE acquisition mode, which allows simultaneous acquisition of MS spectra at low and high collision energies. The identity of putative metabolites was confirmed by the accurate mass and a comparison of the retention times and MS/MS fragmentation patterns with authentic metabolites where available. For metabolite quantitation, the method described below for the analysis of plasma samples was used.
compound,measurement,value
"CCN(CC)CCN(CCN(CC)CC)c1cc(OC)c(OC)cc1Br [Compound 1, 4-(2-bromo-4,5-dimethoxyphenyl)-1,1,7,7-tetraethyldiethylenetriamine]",microsomal CLint at 1 μM,23 ± 4.7 µL/min/mg
